Tests used:
HepG2 cell line = assay: MTT cytotoxicity assay, HepG2; type: cell-based, human; conditions: mean ± SD of three experiments
Experimental: (§1) The cytotoxic activities against breast MCF-7 and liver HepG2 cancer cell lines for all the synthesized compounds 3a,b–17a,b were evaluated by MTT-based cytotoxicity assay. Sunitinib was selected as a reference standard in this study, and the results are presented as IC50 in Table 1.
(§2) The anticancer activities of the target compounds 3a,b–17a,b were quantitatively assessed using the MTT protocol against the MCF-7 and HepG2 cell lines, as described in the Supplementary Materials. […]
(§3) 4.2. Biological investigation
(§4) 4.2.1. In vitro cytotoxic activity assay
(§5) Citation: Abdelgawad, M.A.; Cell Line cells were obtained from the American Type Culture Collection. The cells Hayallah A.M.; Bukhari S.N.A.; were cultured using DMEM (Invitrogen/Life Technologies) supplemented with 10% FBS Musa A.; Elmowafy M.; (Hyclone,), 10 ug/ml of insulin (Sigma), and 1% penicillin‐streptomycin. All of the other Abdel‐Rahman, H.M.; chemicals and reagents were from Sigma or Invitrogen. Plate cells (cells density 1.2 – 1.8 Abd El‐Gaber, M.K. Design, × 10,000 cells/well) in a volume of 100μl complete growth medium + 100 μl of the tested Synthesis, Molecular Modeling, and compound per well in a 96‐well plate for 24 hours before the MTT assay. The tested com‐ Anticancer Evaluation of New pounds were dissolved in DMSO just before the test.
(§6) VEGFR‐2 Inhibitors Based on the Indolin‐2‐One Scaffold. 4.2.1.1. Cell culture protocol
(§7) Pharmaceuticals 2022, 15, x. The culture medium was removed to a centrifuge tube. The cell layer was briefly https://doi.org/10.3390/xxxxx rinsed with 5 mL of 0.25% (w/v) Trypsin and 3 mL of 0.53 mM EDTA solution to remove Academic Editor(s): Mary J. Meegan all traces of serum which contains Trypsin inhibitor. Next, 2.0 to 3.0 ml of Trypsin EDTA Received: 18 October 2022 solution was added to the flask and cells were observed under an inverted microscope Accepted: 9 November 2022 until the cell layer was dispersed (usually within 5 to 15 minutes). Then, 6.0 to 8.0 mL of Published: 14 November 2022 complete growth medium was added and cells aspirated by gently pipetting. The cell suspension was transferred to the centrifuge tube with the medium and cells from step 1, Publisher’s Note: MDPI stays neu‐and centrifuged at approximately 125 xg for 5 to 10 minutes. The supernatant was dis‐ tral with regard to jurisdictional carded and the cell pellet was suspended in fresh growth medium. Appropriate aliquots claims in published maps and institu‐ of the cell suspension were added to new culture vessels and incubated at 37°C for 24 hrs. tional affiliations. After treatment of cells with the serial concentrations of the compound to be tested, incu‐ bation was carried out for 48 h at 37 °C. The plates were examined under an inverted mi‐ croscope and proceeded for the MTT assay […]
(§8) Submitted for possible open access 4.2.1.2. […]
(§9) HepG‐2) were used in this test. At first, the cell lines were cultured in RPMI‐1640 medium Pharmaceuticals 2022, 15, x. https://doi.org/10.3390/xxxxx. www.mdpi.com/journal/pharmaceuticals […]
(§10) Pharmaceuticals 2022, 15, x FOR PEER REVIEW 2 of 22 with 10% fetal bovine serum. Antibiotics (100 units/ml penicillin and100 μg/ml strepto‐ mycin) were added at 37 °C in a 5% CO2 incubator. The cell lines were seeded in a 96‐well plate at a density of 1.0 x 10^4 cells / well at 37 °C for 48 h under 5% CO2. After incubation, the cells were treated with different concentrations of the synthesized compounds and incubated for 24 h. After 24 h of drug treatment, 20 μl of MTT solution (5mg/ml) was added and incubated for 4 h. 100 μl of dimethyl sulfoxide (DMSO) was added into each well to dissolve the formed purple formazan. The colored solution was measured and recorded at an absorbance of 570 nm using a plate reader (EXL 800, USA). The relative cell viability was calculated in percentage as (A570 of treated samples/A570 of untreated sam‐ ple) X 100. The half maximal inhibitory concentration (IC50) values were presented using […]

MCF-7 cell line = assay: MTT cytotoxicity assay, MCF-7; type: cell-based, human; conditions: for IC50: Homo sapiens, MCF7, MTT assay, mean ± SD of three experiments; for fold more potent than sunitinib, MCF-7: ratio of IC50 to sunitinib
Experimental: as §1, §2, §3, §4, §5, §6, §7, §8, §9, §10

HepG2 cells = tested on: HepG2 cells; design: method as in PMID 29901131; conditions: HepG2 liver cancer cells; cited from earlier work
VEGFR-2 = VEGFR-2 (Homo sapiens, UniProt P35968); assay: In vitro VEGFR-2 kinase inhibitory assay (VEGFR2 (KDR) Kinase Assay Kit)
Chain of VEGFR-2 (P35968 20-1356): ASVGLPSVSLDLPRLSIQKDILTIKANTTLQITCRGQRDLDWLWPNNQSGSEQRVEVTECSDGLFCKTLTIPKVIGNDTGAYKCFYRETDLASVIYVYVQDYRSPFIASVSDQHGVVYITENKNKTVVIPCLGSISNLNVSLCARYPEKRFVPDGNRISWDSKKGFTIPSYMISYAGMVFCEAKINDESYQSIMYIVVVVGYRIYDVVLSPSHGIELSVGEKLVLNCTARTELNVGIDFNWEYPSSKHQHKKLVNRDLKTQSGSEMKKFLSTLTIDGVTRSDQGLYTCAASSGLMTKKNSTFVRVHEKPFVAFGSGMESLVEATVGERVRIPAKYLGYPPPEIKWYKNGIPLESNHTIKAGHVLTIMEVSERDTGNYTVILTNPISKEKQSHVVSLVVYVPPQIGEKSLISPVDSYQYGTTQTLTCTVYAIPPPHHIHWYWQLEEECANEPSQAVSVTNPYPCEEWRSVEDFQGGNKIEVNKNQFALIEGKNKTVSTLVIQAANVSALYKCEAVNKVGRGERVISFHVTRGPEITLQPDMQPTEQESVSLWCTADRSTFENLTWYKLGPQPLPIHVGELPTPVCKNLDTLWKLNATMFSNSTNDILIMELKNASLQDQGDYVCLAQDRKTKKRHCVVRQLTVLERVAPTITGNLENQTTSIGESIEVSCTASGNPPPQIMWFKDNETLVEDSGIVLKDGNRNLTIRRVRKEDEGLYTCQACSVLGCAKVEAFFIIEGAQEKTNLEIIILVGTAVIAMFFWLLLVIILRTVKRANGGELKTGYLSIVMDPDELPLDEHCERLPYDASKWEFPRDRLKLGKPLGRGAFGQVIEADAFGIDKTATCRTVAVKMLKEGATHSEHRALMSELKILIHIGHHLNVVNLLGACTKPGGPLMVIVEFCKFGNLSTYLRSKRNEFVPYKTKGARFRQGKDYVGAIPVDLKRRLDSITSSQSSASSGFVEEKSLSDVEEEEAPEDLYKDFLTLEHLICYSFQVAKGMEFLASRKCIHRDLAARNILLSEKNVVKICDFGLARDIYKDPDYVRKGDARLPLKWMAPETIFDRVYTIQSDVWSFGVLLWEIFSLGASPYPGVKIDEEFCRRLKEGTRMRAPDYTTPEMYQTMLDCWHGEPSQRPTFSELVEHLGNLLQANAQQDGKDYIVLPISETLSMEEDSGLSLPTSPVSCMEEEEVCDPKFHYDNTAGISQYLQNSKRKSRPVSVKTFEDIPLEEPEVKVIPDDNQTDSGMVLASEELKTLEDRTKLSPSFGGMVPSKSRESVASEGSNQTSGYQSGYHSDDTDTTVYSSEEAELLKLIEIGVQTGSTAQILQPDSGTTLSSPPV
Experimental: In vitro VEGFR‐2 kinase inhibitory assay
for their inhibitory activity against VEGFR‐2. Human BPS bioscience® VEGFR2 (KDR) Ki‐ nase Assay Kit (Enzyme‐Linked Immunosorbent Assay) was utilized in this test. The lu‐ minescent signal from the assay is correlated with the amount of ATP present and is in‐ versely correlated with the amount of kinase activity. The compounds were diluted to 100 μM in 10% DMSO and 5 ml of the diluted solution was added to a 50 ml reaction so that the final concentration of DMSO was 1% in all of reactions. All of the enzymatic reactions were conducted at 30 °C for 40 min. The 50 μl reaction mixture contains 40 μM Tris, pH 7.4, 10 μM MgCl2, 0.1 mg/ml BSA, 0.2 mg/ml Poly (Glu, Tyr) substrate, 10 μM ATP, and VEGFR‐2. After the enzymatic reaction, 50 ml of Kinase‐GloPlus Luminescence kinase as‐ say solution (Promega) was added to each reaction and the plate was incubated for 5 min at room temperature. Luminescence signal was measured using a BioTek Synergy 2 mi‐ croplate reader. The protein kinase assays used to determine IC50 values were performed using a ADP‐GloTM assay kit from Promega, which measures the generation of ADP by the protein kinase. Generation of ADP by the protein kinase reaction leads to an increase in luminescence signal in the presence of the ADP‐GloTM assay kit. The assay was started by incubating the reaction mixture in a 96‐well plate at 30 °C for 30 min. After the 30 mi n incubation period, the assay was terminated by the addition of 25 ml of ADP‐GloTM Re‐ agent (Promega). The 96‐well plate was shaken and then incubated for 40 min at ambient temperature; 50 ml of Kinase detection reagent was added, the 96‐well reaction plate wa s then read using the ADP‐Glo Luminescences Protocol on a GloMax plate reader (Promega: Catalog #E7031). The blank control was set up which included all the assay components, except the addition of appropriate substrates (replaced with equal volume of kinase assay buffer). The corrected activity for each protein kinase target was deter‐ mined by removing the blank control value. IC50 determination for inhibitor against VEGFR‐2 was estimated by generating a graph of log inhibitor vs normalized response with variables.

Compound | IC50 (HepG2 cell line; Homo sapiens, HepG2, MTT assay) | IC50 (MCF-7 cell line) | melting point | phase of cell cycle arrest (HepG2 cells) | IC50 (VEGFR-2) | fold more potent than sunitinib, MCF-7 (MCF-7 cell line) | fold more potent than sunitinib, VEGFR-2 inhibition (VEGFR-2; ratio of IC50 to sunitinib) | IC50 (HepG2 cell line; MTT assay)
NNC(=O)c1ccc(/N=C2\C(=O)Nc3ccccc32)cc1 [Compound 8a] | 24.9 ± 1.21 µM | 27.2 ± 1.3 µM | – | – | – | – | – | –
O=C1Nc2ccccc2C1=Nc1ccc(C(=O)NN2C(=O)c3ccccc3C2=O)cc1 [Compound 12a, N-(1,3-Dioxoisoindolin-2-yl)-4-((2-oxoindolin-3-ylidene)amino)benzamide] | 130 ± 6.37 µM | 78.4 ± 3.81 µM | 187 to 189 °C | – | – | – | – | –
CCOC(=O)CC(C)=NNC(=O)c1ccc(N=C2C(=O)Nc3ccccc32)cc1 [Compound 14a, Ethyl 3-(2-(4-((2-oxoindolin-3-ylidene)amino)benzoyl)hydrazono)butanoate] | 10.3 ± 0.81 µM | 7.37 ± 0.4 µM | 206 to 208 °C | – | – | – | – | –
CNC(=O)c1cc(Oc2ccc(NC(=O)Nc3ccc(Cl)c(C(F)(F)F)c3)cc2)ccn1 [Sorafenib] | – | – | – | S phase and G2/M phase | – | – | – | –
O=C1Nc2ccccc2C1=Nc1ccc(C(=O)NN=Cc2ccc([N+](=O)[O-])cc2)cc1 [Compound 10a, N′-(4-Nitrobenzylidene)-4-((2-oxoindolin-3-ylidene)amino)benzohydrazide] | 8.24 ± 0.4 µM | 40 ± 2 µM | 220 to 222 °C | – | – | – | – | –
CNC(=S)NNC(=O)c1ccc(N=C2C(=O)Nc3ccccc32)cc1 [Compound 5a, N-Methyl-2-(4-((2-oxoindolin-3-ylidene)amino)benzoyl)hydrazinecarbothioamide] | 5.48 ± 0.27 µM | 6.42 ± 0.55 µM | 249 to 251 °C | – | – | – | – | –
O=C1Nc2ccc(F)cc2C1=Nc1ccc(C(=O)NN2C(=O)c3ccccc3C2=O)cc1 [Compound 12b, N-(1,3-Dioxoisoindolin-2-yl)-4-((5-fluoro-2-oxoindolin-3-ylidene)amino)benzamide] | 23.5 ± 1.15 µM | 33.8 ± 1.7 µM | 225 to 227 °C | – | – | – | – | –
CNC(=S)NNC(=O)c1ccc(N=C2C(=O)Nc3ccc(F)cc32)cc1 [Compound 5b, 2-(4-((5-Fluoro-2-oxoindolin-3-ylidene)amino)benzoyl)-N-methylhydrazinecarbothioamide] | 2.62 ± 0.13 µM | 0.99 ± 0.04 µM | 252 to 254 °C | – | 0.16 ± 0.008 µM | 5 fold | – | –
NNC(=O)c1ccc(/N=C2\C(=O)Nc3ccc(F)cc32)cc1 [Compound 8b] | 53.9 ± 2.63 µM | 40.7 ± 2.8 µM | – | – | – | – | – | –
CN(C)c1ccc(C=NNC(=O)c2ccc(N=C3C(=O)Nc4ccc(F)cc43)cc2)cc1 [Compound 10f, N′-(4-(Dimethylamino)benzylidene)-4-((5-fluoro-2-oxoindolin-3-ylidene)amino)benzohydrazide] | 19.2 ± 0.94 µM | 11 ± 0.59 µM | 202 to 204 °C | – | – | – | – | –
O=C1Nc2ccc(F)cc2C1=Nc1ccc(C(=O)NN=Cc2ccc(Br)cc2)cc1 [Compound 10g, N′-(4-Bromobenzylidene)-4-((5-fluoro-2-oxoindolin-3-ylidene)amino)benzohydrazide] | 2.79 ± 0.14 µM | 0.74 ± 0.03 µM | 227 to 229 °C | – | 0.087 ± 0.004 µM | 6 fold | 1.6 fold | –
COc1ccc(C=NNC(=O)c2ccc(N=C3C(=O)Nc4ccccc43)cc2)cc1 [Compound 10e, N′-(4-Methoxybenzylidene)-4-((2-oxoindolin-3-ylidene)amino)benzohydrazide] | 8.81 ± 0.43 µM | 4.62 ± 0.2 µM | 239 to 240 °C | – | 0.358 ± 0.019 µM | – | – | –
O=C1Nc2ccccc2C1=Nc1ccc(C(=O)NN=Cc2cccc([N+](=O)[O-])c2)cc1 [Compound 10c, N′-(3-Nitrobenzylidene)-4-((2-oxoindolin-3-ylidene)amino)benzohydrazide] | 21 ± 1.02 µM | 14.6 ± 0.71 µM | 200 to 201 °C | – | – | – | – | –
O=C1Nc2ccc(F)cc2C1=Nc1ccc(C(=O)NNC(=S)Nc2ccccc2)cc1 [Compound 17b, 2-(4-((5-Fluoro-2-oxoindolin-3-ylidene)amino)benzoyl)-N-phenylhydrazinecarbothioamide] | 9.81 ± 0.48 µM | 25.8 ± 1.3 µM | 203 to 205 °C | – | – | – | – | –
CCOC(=O)c1ccc(/N=C2\C(=O)Nc3ccccc32)cc1 [Compound 7a] | 10.9 ± 0.53 µM | 14.9 ± 0.7 µM | – | – | – | – | – | –
O=C1Nc2ccccc2C1=Nc1ccc(C(=O)NN=Cc2ccc(Cl)cc2)cc1 [Compound 10b, N′-(4-Chlorobenzylidene)-4-((2-oxoindolin-3-ylidene)amino)benzohydrazide] | 33.8 ± 1.65 µM | 23.8 ± 1.21 µM | 237 to 239 °C | – | – | – | – | –
CCOC(=O)c1ccc(/N=C2\C(=O)Nc3ccc(F)cc32)cc1 [Compound 7b] | 2.23 ± 0.11 µM | 3.81 ± 0.2 µM | – | – | – | – | – | –
Cc1ccc(C=NNC(=O)c2ccc(N=C3C(=O)Nc4ccccc43)cc2)cc1 [Compound 10d, N′-(4-Methylbenzylidene)-4-((2-oxoindolin-3-ylidene)amino)benzohydrazide] | 21.4 ± 1.05 µM | 13.7 ± 0.4 µM | 234 to 236 °C | – | – | – | – | –
O=C1Nc2ccc(F)cc2/C1=N/c1ccc(C(=O)O)cc1 [Compound 3b] | 51.2 ± 2.5 µM | 43.9 ± 2.1 µM | – | – | – | – | – | –
O=C1Nc2ccccc2C1=Nc1ccc(-c2n[nH]c(=S)o2)cc1 [Compound 15a, 3-((4-(5-Thioxo-4,5-dihydro-1,3,4-oxadiazol-2-yl)phenyl)imino)indolin-2-one] | 2.3 ± 0.18 µM | 2.77 ± 0.1 µM | 219 to 220 °C | – | 0.18 ± 0.009 µM | – | – | 2.3 ± 0.18 µM
CCOC(=O)CC(C)=NNC(=O)c1ccc(N=C2C(=O)Nc3ccc(F)cc32)cc1 [Compound 14b, Ethyl 3-(2-(4-((5-Fluoro-2-oxoindolin-3-ylidene)amino)benzoyl)hydrazono)butanoate] | 13.8 ± 0.67 µM | 32.9 ± 1.61 µM | 213 to 215 °C | – | – | – | – | –
CCN(CC)CCNC(=O)c1c(C)[nH]c(/C=C2\C(=O)Nc3ccc(F)cc32)c1C [Sunitinib, reference compound] | 2.23 ± 0.11 µM | 4.77 ± 0.29 µM | – | – | – | – | – | –
O=C1Nc2ccc(F)cc2C1=Nc1ccc(-c2n[nH]c(=S)o2)cc1 [Compound 15b, 5-Fluoro-3-((4-(5-thioxo-4,5-dihydro-1,3,4-oxadiazol-2-yl)phenyl)imino)indolin-2-one] | 12.7 ± 0.62 µM | 19.6 ± 1.8 µM | 231 to 233 °C | – | – | – | – | –
O=C1Nc2ccccc2/C1=N/c1ccc(C(=O)O)cc1 [Compound 3a] | 62.4 ± 2.61 µM | 51.6 ± 2.5 µM | – | – | – | – | – | –

Reference: PMC9698773, “Design, Synthesis, Molecular Modeling, and Anticancer Evaluation of New VEGFR-2 Inhibitors Based on the Indolin-2-One Scaffold” (Pharmaceuticals, 2022)
